Measurements as given in US11731974B2, “N-acyl-(3-substituted)-(8-substituted)-5,6-dihydro-[1,2,4]triazolo[4,3-a]pyrazines as selective NK-3 receptor antagonists” (Ogeda SA, priority 2013, dated 2023).

Experiments:
circulating LH levels = assay: Castrated male rat model, circulating levels of luteinizing hormone (LH); format: in vivo; conditions: single oral dose less than or equal to 30 mg/kg, p<0.05
Description: In Vivo Assay to Assess Compound Activity in Rat (Oral Dosing)
Castrated male rat model to assess the effect of compound of invention on circulating levels of luteinizing hormone (LH)
The effect of compounds of the invention to inhibit luteinizing hormone (LH) secretion is determined by the following biological studies.
In humans and rodents, castration is well-precedented to permit heightened, persistent GnRH signaling and consequent elevation of circulating LH. Thus, a castrated rat model is used to provide a broad index for measurement of LH inhibition as a marker of test compound inhibition of the GnRH signaling pathway.
Castrated adult male Sprague-Dawley (SD) rats (150-175 g) were purchased from Janvier (St Berthevin, France). All animals were housed 2 per cage in a temperature-controlled room (22±2° C.) and 50±5% relative humidity with a 12 hour/12 hour light/dark cycles (lights off at 6 h00 pm). The animals were allowed 3 weeks of postoperative recovery prior to study. Animals were handled on a daily basis. Standard diet and tap water were provided ad libitum. Animal cage litters were changed once a week. On the study day, animals were acclimated to the procedure room for a period of one hour prior to the initiation of the experiment.
Compounds of the invention were formulated in 0.5% methyl cellulose.
After basal sampling (TO) a single dose of compounds of the invention or vehicle was administrated orally to rats. Blood samples were then collected at several time points post dosing (45, 90, 150, 300 and 420 minutes). Blood samples were obtained via tail vein bleed, drawn into EDTA-containing tubes and centrifuged immediately. Plasma samples were collected and stored in a −80° C. freezer until assayed. Serum LH levels were determined using radioimmunoassay kit from RIAZEN—Rat LH, Zentech (Liege, Belgium). Baseline was defined as the initial basal blood sample.

plasma testosterone = assay: Plasma testosterone in gonad intact male rats; format: in vivo, rat; conditions: 3 mg/kg single oral, vs vehicle, FIG. 1
Description: The study was designed to evaluate the effect of compounds of the invention on testosterone circulating levels following oral administration at 3 mg/kg on SD gonad intact male rats.
(§1) Briefly the experimental methods used for this study were as follows:
Two groups of non-fasted rats (male, Sprague-Dawley, 200 to 225 g; n=4 rats/group) with jugular vein cannulation, were dosed via a single oral administration of compounds of the invention at 3 mg/kg. The control group was dosed with the vehicle. Compounds of the invention were prepared in a dose formulation of pyrogen-free water with 0.5% methylcellulose. Blood samples were collected via the catheter implanted in the jugular vein at pre-determined intervals using EDTA-3K as anti-coagulant. Samples were chilled and rapidly processed by centrifugation to obtain corresponding plasma samples. Testosterone hormone levels were determined by RIA performed on plasma samples collected for all the groups at 5 minutes before administration (basal time), and at 45, 90, 150, 300, 480 minutes and 24 hours after dosing.

plasma estradiol = assay: Estradiol circulating level in female rats; format: in vivo, rat; conditions: 10 mg/kg b.i.d. oral, two consecutive estrous cycles, FIG. 3
Description: Effect of compounds of the invention on Estradiol circulating level in female rats. The aim of this study was to evaluate the effect of compounds of the invention on plasma estradiol levels following oral administration at 10 mg/kg (b.i.d.) for a period of 10 days in female rats.
as §1
Two groups of adult, female rats (Sprague-Dawley, ˜320 g) were treated in-phase with their individual estrous cycles. […] Compounds of the invention were prepared in a dose formulation of pyrogen-free water with 0.5% methylcellulose. Estradiol levels were determined for all groups by ELISA performed on plasma samples derived from blood collections taken at 30 minutes before the daily, 9 h30 test article administration on all days presented in FIG. 3.

[1] = test system: serum TT, LH, FSH in women with PCOS; assay: Phase 2a clinical trial, PolyCystic Ovary Syndrome (PCOS); format: in vivo, human; conditions: 180 mg QD
Description: The Phase 2a trial was double blind and randomized.
Blood draws for LH, FSH and TT were taken every visit between 2 and 8 hours after drug intake (baseline and week 3-6-12). […] These blood draws were the basis for assessing the primary (TT) and secondary (LH, FSH, LH:FSH ratio) endpoints. The primary endpoint of Total Testosterone was measured according to GLP using an LC-MS/MS method.
PCOS is typically characterized by excessive ovarian androgen production, failure of ovulation, and slightly enlarged ovaries with numerous peripheral small follicles that appear as cysts. The disorder is commonly accompanied by infertility. Typically, the clinical features of PCOS are associated with hypersecretion of LH and androgens (TT) but with normal serum concentrations of FSH hormone.
Statistical analyses performed by 2-way ANOVA comparing placebo to treatment.

[2] = test system: body temperature in ovariectomized ewes; assay: In vivo assay in OVX ewes, thermoregulation; parameters: species or system ewe; conditions: 1 mg/kg intravenous
Source text: In Vivo Assay in OVX Ewes-Activity in Thermoregulation Experimental Methods: Evaluation of Thermoregulation in OVX Ewe […] After 4 months recovery, animals were acclimatised to housing in single pens for a period of 7 days with ad libitum access to water and […] lucerne hay. One day prior to experimentation, the animals received a jugular vein cannula ([…], Tuta Laboratories, Lane Cove, Australia). The cannula were kept patent with heparinised saline. […] Animals were fed at 12 h00. Rectal temperatures were monitored with a probe at hourly intervals throughout the experiment, starting at 7 h40 and concluding at 15 h40. […] However, this pyrogenic response to feeding in ovarectomized ewes was not observed in any animals treated with compound no 5. […] Graphical data presented as mean±SEM for vehicle-treated versus compound no 5-treated ewes (N=5/group). Statistical analyses performed by 2-way ANOVA followed by Sidak's Multiple Comparisons Test between treatment groups at the indicated time interval, *p<0.05. Conclusions: Ovariectomy in the ewe causes changes in core body temperature considered analogous to menopausal hot flashes ([…], Bryant, & Turner, 2003) to the extent that a transient, pyrogenic response to feeding is observed (Henry, Dunshea, Gould, & Clarke, 2008).

Row | SMILES | circulating LH levels (circulating LH levels) | other results
1 | Cc1nsc(-c2nnc3n2CCN(C(=O)c2ccc(Cl)c(Cl)c2)[C@@H]3C)n1 [Compound 1, (R)-(3,4-dichlorophenyl)(8-methyl-3-(3-methyl-1,2,4-thiadiazol-5-yl)-5,6-dihydro-[1,2,4]triazolo[4,3-a]pyrazin-7(8H)-yl)methanone] | significantly suppressed | 
2 | CCc1nsc(-c2nnc3n2CCN(C(=O)c2ccc(F)cc2)[C@@H]3C)n1 [Compound 2, (R)-(3-(3-ethyl-1,2,4-thiadiazol-5-yl)-8-methyl-5,6-dihydro-[1,2,4]triazolo[4,3-a]pyrazin-7(8H)-yl)(4-fluorophenyl)methanone] | significantly suppressed | 
3 | Cc1nsc(-c2nnc3n2CCN(C(=O)c2ccc(Cl)c(F)c2)[C@@H]3C)n1 [Compound 4, (R)-(4-chloro-3-fluorophenyl)(8-methyl-3-(3-methyl-1,2,4-thiadiazol-5-yl)-5,6-dihydro-[1,2,4]triazolo[4,3-a]pyrazin-7(8H)-yl)methanone] | significantly suppressed | 
4 | Cc1nsc(-c2nnc3n2CCN(C(=O)c2ccc(F)cc2)[C@@H]3C)n1 [Compound 5, (R)-(4-fluorophenyl)(8-methyl-3-(3-methyl-1,2,4-thiadiazol-5-yl)-5,6-dihydro-[1,2,4]triazolo[4,3-a]pyrazin-7(8H)-yl)methanone] | significantly suppressed | plasma testosterone level (plasma testosterone): significantly suppressed; estradiol levels (plasma estradiol): significantly decreased; FSH secretion [1]: preserved; LH [1]: significant decrease; LH:FSH in comparison of placebo [1]: significantly reduced; TT in comparison of placebo [1]: significantly reduced; pyrogenic response to feeding [2]: not observed
5 | Cc1nsc(-c2nnc3n2CCN(C(=O)c2ccc(F)c(F)c2F)[C@@H]3C)n1 [Compound 8, (R)-(8-methyl-3-(3-methyl-1,2,4-thiadiazol-5-yl)-5,6-dihydro-[1,2,4]triazolo[4,3-a]pyrazin-7(8H)-yl)(2,3,4-trifluorophenyl)methanone] | significantly suppressed | 
6 | Cc1nsc(-c2nnc3n2CCN(C(=O)c2ccc(F)c(F)c2)[C@@H]3C)n1 [Compound 9, (R)-(3,4-difluorophenyl)(8-methyl-3-(3-methyl-1,2,4-thiadiazol-5-yl)-5,6-dihydro-[1,2,4]triazolo[4,3-a]pyrazin-7(8H)-yl)methanone] | significantly suppressed | 
7 | CCc1noc(-c2nnc3n2CCN(C(=O)c2ccc(F)cc2)[C@@H]3C)n1 [Compound 13, (R)-(3-(3-ethyl-1,2,4-oxadiazol-5-yl)-8-methyl-5,6-dihydro-[1,2,4]triazolo[4,3-a]pyrazin-7(8H)-yl)(4-fluorophenyl)methanone] | significantly suppressed | 
8 | Cc1nsc(-c2nnc3n2CCN(C(=O)c2ccccc2)[C@@H]3C)n1 [Compound 20, (R)-(8-methyl-3-(3-methyl-1,2,4-thiadiazol-5-yl)-5,6-dihydro-[1,2,4]triazolo[4,3-a]pyrazin-7(8H)-yl)(phenyl)methanone] | significantly suppressed | 
9 | CCc1noc(-c2nnc3n2CCN(C(=O)c2ccc(-c4cccs4)cc2)[C@@H]3C)n1 [Compound 30, (R)-(3-(3-ethyl-1,2,4-oxadiazol-5-yl)-8-methyl-5,6-dihydro-[1,2,4]triazolo[4,3-a]pyrazin-7(8H)-yl)(4-(thiophen-2-yl)phenyl)methanone] | significantly suppressed | 
